In PMC5067704 (ACS Infectious Diseases, 2016):
In brackets after ≈: the same amount, converted by molar mass. Where two headings read alike, the source gives them in different places.

Legend:
S. aureus ATCC 25923 = assay: MIC determination, S. aureus ATCC 25923; type: cell-based; settings: Staphylococcus aureus
E. coli MB4827 = assay: MIC determination, E. coli MB4827; type: cell-based; settings: Escherichia coli, n = 4
[1] = biological target: T1, E. coli dihydrofolate reductase (eDHFR) (Escherichia coli, UniProt P0ABQ4); assay: DHFR enzyme inhibition assay; type: biochemical
T1 construct: host or cells: cell-free (PURExpress in vitro protein synthesis)

E. coli clin isol [2] = assay: MIC determination, E. coli clinical isolate (first column); type: cell-based; settings: Escherichia coli, n = 4
[3] = Cytotoxicity assay (resazurin), HepG2; type: cell-based; settings: human, HepG2 cells, 20 h incubation, highest concentration 60 μM
E. coli clin isol [4] = assay: MIC determination, E. coli clinical isolate (second column); type: cell-based; settings: Escherichia coli, n = 4
E. coli tolC mutant = assay: microbe, parasite or virus in culture; type: cell-based, Escherichia coli; settings: for MIC: Escherichia coli, read-out: MIC E. coli tolC mutant
E. coli ATCC 25922 = assay: MIC determination, E. coli ATCC 25922 (wild type); type: cell-based, Escherichia coli; settings: for MIC: Escherichia coli
E. coli lpxC/tolC mutant = assay: microbe, parasite or virus in culture; type: cell-based; settings: Escherichia coli, read-out: MIC E. coli lpxC/tolC mutant
[5] = Cytotoxicity assay (resazurin), HEK 293; type: cell-based; settings: human, HEK293 cells, 20 h incubation, highest concentration 60 μM
E. coli lpxC mutant = assay: microbe, parasite or virus in culture; type: cell-based; settings: Escherichia coli, read-out: MIC E. coli lpxC mutant
E. coli DC2 mutant = assay: microbe, parasite or virus in culture; type: cell-based; settings: Escherichia coli, DC2MUTANT, read-out: MIC E. coli DC2 mutant
E. coli (ATCC 25922) = assay: LC-MS/MS bacterial accumulation assay, wild type E. coli; type: cell-based, Escherichia coli; settings: example of the calculation; strain and dose not stated
[6] = system: membrane-impaired mutant E. coli (LpxC and DC2); assay: microbe, parasite or virus in culture; settings: Escherichia coli, read-out: MIC membrane-impaired mutant E. coli (LpxC and DC2)
[7] = ATCC25923, n = 4, read-out: MIC S. aureus ATCC 25923
[8] = ATCC25922, wild type, n = 4, read-out: MIC E. coli ATCC 25922

T1 sequence (P0ABQ4 whole entry): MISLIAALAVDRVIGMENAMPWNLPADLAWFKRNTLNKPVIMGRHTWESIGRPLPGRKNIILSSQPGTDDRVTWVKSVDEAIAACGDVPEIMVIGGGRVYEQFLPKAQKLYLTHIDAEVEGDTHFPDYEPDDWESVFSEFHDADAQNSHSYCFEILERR

| SMILES | MIC (S. aureus ATCC 25923; [7]) | MIC (E. coli MB4827) | IC50 [1] | MIC (E. coli clin isol [2]) | CC50 at 20 h [3] | MIC (E. coli clin isol [4]) | MIC (E. coli tolC mutant) | MIC (E. coli ATCC 25922; [8]) | MIC (E. coli lpxC/tolC mutant) | CC50 at 20 h [5] | MIC (E. coli lpxC mutant) | MIC (E. coli DC2 mutant) | antimicrobial activity, fold less active than TMP (E. coli ATCC 25922; E. coli strains of Table 1) | MIC (S. aureus ATCC 25923; ATCC25923, molar equivalent of the μg/mL value, read-out: MIC S. aureus ATCC 25923, in μM) | MIC E. coli ΔtolC (E. coli tolC mutant; molar equivalent of the μg/mL value) | MIC (E. coli ATCC 25922; ATCC25922, molar equivalent of the μg/mL value, read-out: MIC E. coli ATCC 25922, in μM) | measured concentration using LC-MS/MS (lysate) (E. coli (ATCC 25922)) | MIC [6] |
| --- | --- | --- | --- | --- | --- | --- | --- | --- | --- | --- | --- | --- | --- | --- | --- | --- | --- | --- |
| COc1cc(Cc2cnc(N)nc2N)cc(OC)c1OCCCCCn1cc(CNc2ccc([N+](=O)[O-])c3nonc23)nn1 [compound 12c] | 8 µg/mL | > 64 µg/mL | 0.208 µM | > 64 µg/mL | > 60 µM | > 64 µg/mL | 0.5 µg/mL (≈ 0.826 µM) | > 64 µg/mL | 0.5 µg/mL (≈ 0.826 µM) | 46 µM | > 64 µg/mL | > 64 µg/mL |  |  |  |  |  |  |
| COc1cc(Cc2cnc(N)nc2N)cc(OC)c1OCCCCCn1cc(CNC(=O)Cc2cc(=O)oc3cc(N(C)C)ccc23)nn1 [compound 13c] | > 64 µg/mL | > 64 µg/mL | 0.668 µM | > 64 µg/mL | > 60 µM | > 64 µg/mL | 1 µg/mL (≈ 1.49 µM) | > 64 µg/mL | 1 µg/mL (≈ 1.49 µM) | > 60 µM | > 64 µg/mL | > 64 µg/mL |  |  |  |  |  |  |
| COc1cc(Cc2cnc(N)nc2N)cc(OC)c1OCCCN=[N+]=[N-] [8a] | 4 µg/mL | 8 µg/mL (≈ 22.3 µM) | 0.066 µM | 8 µg/mL (≈ 22.3 µM) | > 60 µM | 4 µg/mL (≈ 11.1 µM) | 0.25 µg/mL (≈ 0.696 µM) | 8 µg/mL | 0.25 µg/mL (≈ 0.696 µM) | > 60 µM |  | 4 µg/mL (≈ 11.1 µM) | 8–16 fold |  |  |  |  |  |
| COc1cc(Cc2cnc(N)nc2N)cc(OC)c1OCCCn1cc(CNc2ccc([N+](=O)[O-])c3nonc23)nn1 [12a] | 64 µg/mL | > 64 µg/mL | 0.254 µM | > 64 µg/mL | > 60 µM | > 64 µg/mL | 2 µg/mL (≈ 3.46 µM) | > 64 µg/mL | 1 µg/mL (≈ 1.73 µM) | > 60 µM | > 64 µg/mL | > 64 µg/mL |  |  |  |  |  |  |
| COc1cc(Cc2cnc(N)nc2N)cc(OC)c1OCCCCn1cc(CNc2ccc([N+](=O)[O-])c3nonc23)nn1 [compound 12b] |  | > 64 µg/mL | 0.148 µM | > 64 µg/mL | > 60 µM | > 64 µg/mL | 0.25 µg/mL (≈ 0.423 µM) |  | 0.5 µg/mL (≈ 0.845 µM) | > 60 µM | > 64 µg/mL | > 64 µg/mL |  | > 94 µM | 0.37 µM | 24 µM | 7.122 µM |  |
| COc1cc(Cc2cnc(N)nc2N)cc(OC)c1OCCCCCn1cc(CNS(=O)(=O)c2cccc3c(N(C)C)cccc23)nn1 [compound 14c] | 32 µg/mL | > 64 µg/mL | 0.509 µM | > 64 µg/mL | 51 µM | > 64 µg/mL | 0.25 µg/mL (≈ 0.37 µM) | > 64 µg/mL | 0.25 µg/mL (≈ 0.37 µM) | 32 µM | > 64 µg/mL | > 64 µg/mL |  |  |  |  |  |  |
| COc1cc(Cc2cnc(N)nc2N)cc(OC)c1OCCCCn1cc(CNC(=O)Cc2cc(=O)oc3cc(N(C)C)ccc23)nn1 [compound 13b] | > 64 µg/mL | > 64 µg/mL | 0.162 µM | > 64 µg/mL | > 60 µM | > 64 µg/mL | 2 µg/mL (≈ 3.04 µM) | > 64 µg/mL | 2 µg/mL (≈ 3.04 µM) | > 60 µM | > 64 µg/mL | > 64 µg/mL |  |  |  |  |  |  |
| COc1cc(Cc2cnc(N)nc2N)cc(OC)c1OCCCCN=[N+]=[N-] [8b] | 4 µg/mL | 16 µg/mL (≈ 42.8 µM) | 0.097 µM | 8 µg/mL (≈ 21.4 µM) | > 60 µM | 16 µg/mL (≈ 42.8 µM) | 0.125 µg/mL (≈ 0.335 µM) | 32 µg/mL | 0.25 µg/mL (≈ 0.669 µM) | > 60 µM |  | 8 µg/mL (≈ 21.4 µM) |  |  |  |  |  |  |
| COc1cc(Cc2cnc(N)nc2N)cc(OC)c1OCCCCn1cc(CNS(=O)(=O)c2cccc3c(N(C)C)cccc23)nn1 [compound 14b] | 64 µg/mL | > 64 µg/mL | 0.226 µM | > 64 µg/mL | > 60 µM | > 64 µg/mL | 0.5 µg/mL (≈ 0.756 µM) | > 64 µg/mL | 1 µg/mL (≈ 1.51 µM) | 59 µM | > 64 µg/mL | > 64 µg/mL |  |  |  |  |  |  |
| COc1cc(Cc2cnc(N)nc2N)cc(OC)c1OC [TMP, trimethoprim, reference compound] | 1 µg/mL | 1 µg/mL (≈ 3.44 µM) |  | 0.5 µg/mL (≈ 1.72 µM) |  | 0.5 µg/mL (≈ 1.72 µM) | 0.125 µg/mL (≈ 0.431 µM) | 0.5 µg/mL | 0.125 µg/mL (≈ 0.431 µM) |  |  | 0.25 µg/mL (≈ 0.861 µM) |  |  |  |  |  | 0.25 to 0.5 µg/mL (≈ 0.861 to 1.72 µM) |
| COc1cc(Cc2cnc(N)nc2N)cc(OC)c1OCCCCCN=[N+]=[N-] [8c] | 4 µg/mL | 32 µg/mL (≈ 82.6 µM) | 0.14 µM | 16 µg/mL (≈ 41.3 µM) | > 60 µM | 16 µg/mL (≈ 41.3 µM) | 0.125 µg/mL (≈ 0.323 µM) | 32 µg/mL | 0.25 µg/mL (≈ 0.645 µM) | > 60 µM | 8 µg/mL (≈ 20.6 µM) | 8 µg/mL (≈ 20.6 µM) |  |  |  |  |  |  |
| COc1cc(Cc2cnc(N)nc2N)cc(OC)c1OCCCn1cc(CNS(=O)(=O)c2cccc3c(N(C)C)cccc23)nn1 [compound 14a] | > 64 µg/mL | > 64 µg/mL | 0.162 µM | > 64 µg/mL | > 60 µM | > 64 µg/mL | 0.5 µg/mL (≈ 0.772 µM) | > 64 µg/mL | 0.5 µg/mL (≈ 0.772 µM) | 59 µM | > 64 µg/mL | > 64 µg/mL |  |  |  |  |  |  |
| COc1cc(Cc2cnc(N)nc2N)cc(OC)c1OCCCn1cc(CNC(=O)Cc2cc(=O)oc3cc(N(C)C)ccc23)nn1 [13a] | > 64 µg/mL | > 64 µg/mL | 0.083 µM | > 64 µg/mL | > 60 µM | > 64 µg/mL | 8 µg/mL (≈ 12.4 µM) | > 64 µg/mL | 8 µg/mL (≈ 12.4 µM) | > 60 µM | > 64 µg/mL | > 64 µg/mL |  |  |  |  |  |  |
